The text below walks through data of PMC7827085 (Pharmaceutics, 2021).

Structures are written as SMILES. Like-named read-outs stand apart in the source and are kept apart here.

One series deals with ABCB1/MDR1/Pgp (Homo sapiens, UniProt P08183). Briefly: biochemical. The following applies: Estimated Transporter Inhibition IC50, ABCB1 vesicular assay, ATP-dependent NMQ uptake, HEK-293/ABCB1 inverted membrane vesicles; '-' = no inhibition.
The target of a further series is T1, ABCB1/Pgp (Homo sapiens, UniProt P08183).
T1 construct: made in house; host or cells: Sf9 insect cells
Briefly: ABCB1-ATPase activity in Sf9 membrane vesicles. It is filed as biochemical. The method, then: ABC transporter ATPase activity was measured in Sf9 membrane vesicles containing the respective human ABC transporters. For ABCG2/BCRP, the cholesterol level in the vesicles was increased to the level of mammalian cell membranes for full activity. For ABCB1/Pgp 20 μg/150 μL and for ABCG2/BCRP 10 μg/150 μL, vesicles were incubated with 3 mM Mg-ATP for 25 min at 37 °C. The test drugs were dissolved in DMSO and 1 µL was added to the samples. The ABC transporter-related ATPase activity was determined and reference activators (50 µM verapamil for ABCB1 and 5 µM quercetin for ABCG2) served as controls.
Drug-stimulated ATPase activity of the ABCB1 transporter is a well-documented functional assay employed to estimate the substrate or inhibitory features of various drugs. […] In this assay, most transported substrates show a biphasic curve: Low concentrations stimulate, while higher concentrations inhibit, the ATPase activity. In these experiments, we measured the vanadate-sensitive (ABC transporter-related) ABCB1-ATPase activity in membrane vesicles isolated from ABCB1 overexpressing Sf9 cells.

A further series deals with T2, wild-type ABCG2 (Homo sapiens, UniProt Q9UNQ0).
T2 construct: expressed in transfected cells; host or cells: HeLa (Sleeping Beauty transposon system)
T2 sequence (Q9UNQ0 1-655): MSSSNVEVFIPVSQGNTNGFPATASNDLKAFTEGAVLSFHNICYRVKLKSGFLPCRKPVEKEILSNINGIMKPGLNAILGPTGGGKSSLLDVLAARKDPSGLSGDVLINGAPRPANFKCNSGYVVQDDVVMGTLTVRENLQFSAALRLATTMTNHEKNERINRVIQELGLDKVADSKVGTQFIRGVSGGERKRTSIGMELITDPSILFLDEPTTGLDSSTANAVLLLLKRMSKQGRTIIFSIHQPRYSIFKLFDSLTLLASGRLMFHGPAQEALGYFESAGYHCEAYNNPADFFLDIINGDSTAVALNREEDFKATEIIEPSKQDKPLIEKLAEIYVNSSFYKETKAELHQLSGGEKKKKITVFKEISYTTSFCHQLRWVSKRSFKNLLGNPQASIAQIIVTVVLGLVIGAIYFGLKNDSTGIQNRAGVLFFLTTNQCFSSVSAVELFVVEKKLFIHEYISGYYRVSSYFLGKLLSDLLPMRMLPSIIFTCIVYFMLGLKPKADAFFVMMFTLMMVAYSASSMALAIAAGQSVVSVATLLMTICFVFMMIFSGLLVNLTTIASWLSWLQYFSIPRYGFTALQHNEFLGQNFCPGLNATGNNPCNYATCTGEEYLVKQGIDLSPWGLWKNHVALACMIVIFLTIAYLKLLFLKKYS
As to the kind of experiment: Hoechst 33342 dye extrusion in HeLa cells expressing wild-type ABCG2. It is filed as cell-based. The following applies: wild-type ABCG2, 0.2 µM Hoechst 33342, full inhibition by 1 µM Ko143.

Series [1] concerns the target T3, OATP2B1 (Homo sapiens, UniProt O94956).
T3 sequence (O94956 1-709): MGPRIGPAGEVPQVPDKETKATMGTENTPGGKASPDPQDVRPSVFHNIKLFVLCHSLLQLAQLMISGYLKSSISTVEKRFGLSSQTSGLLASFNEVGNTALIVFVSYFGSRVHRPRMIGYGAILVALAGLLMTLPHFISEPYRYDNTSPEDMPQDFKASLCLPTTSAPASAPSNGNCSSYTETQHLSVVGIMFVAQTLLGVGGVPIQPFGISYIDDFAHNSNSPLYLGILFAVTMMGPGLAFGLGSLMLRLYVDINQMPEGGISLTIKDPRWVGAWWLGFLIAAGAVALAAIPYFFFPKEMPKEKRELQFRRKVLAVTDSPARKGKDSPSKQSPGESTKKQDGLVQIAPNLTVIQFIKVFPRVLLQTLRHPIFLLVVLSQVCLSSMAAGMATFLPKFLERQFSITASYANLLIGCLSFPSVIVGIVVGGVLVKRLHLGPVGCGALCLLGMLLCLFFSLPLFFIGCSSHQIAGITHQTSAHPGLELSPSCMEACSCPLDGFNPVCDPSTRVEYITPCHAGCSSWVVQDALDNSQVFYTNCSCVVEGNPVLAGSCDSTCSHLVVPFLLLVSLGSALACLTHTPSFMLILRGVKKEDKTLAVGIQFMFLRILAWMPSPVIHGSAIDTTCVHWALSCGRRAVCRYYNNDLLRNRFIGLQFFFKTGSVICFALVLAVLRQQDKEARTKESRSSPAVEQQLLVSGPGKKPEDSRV
As to the kind of experiment: cell-based.

For series [2] the following is noted: cited from earlier work.
The next series has as its target T4, OATP1A2 (Homo sapiens, UniProt P46721).
T4 sequence (P46721 1-670): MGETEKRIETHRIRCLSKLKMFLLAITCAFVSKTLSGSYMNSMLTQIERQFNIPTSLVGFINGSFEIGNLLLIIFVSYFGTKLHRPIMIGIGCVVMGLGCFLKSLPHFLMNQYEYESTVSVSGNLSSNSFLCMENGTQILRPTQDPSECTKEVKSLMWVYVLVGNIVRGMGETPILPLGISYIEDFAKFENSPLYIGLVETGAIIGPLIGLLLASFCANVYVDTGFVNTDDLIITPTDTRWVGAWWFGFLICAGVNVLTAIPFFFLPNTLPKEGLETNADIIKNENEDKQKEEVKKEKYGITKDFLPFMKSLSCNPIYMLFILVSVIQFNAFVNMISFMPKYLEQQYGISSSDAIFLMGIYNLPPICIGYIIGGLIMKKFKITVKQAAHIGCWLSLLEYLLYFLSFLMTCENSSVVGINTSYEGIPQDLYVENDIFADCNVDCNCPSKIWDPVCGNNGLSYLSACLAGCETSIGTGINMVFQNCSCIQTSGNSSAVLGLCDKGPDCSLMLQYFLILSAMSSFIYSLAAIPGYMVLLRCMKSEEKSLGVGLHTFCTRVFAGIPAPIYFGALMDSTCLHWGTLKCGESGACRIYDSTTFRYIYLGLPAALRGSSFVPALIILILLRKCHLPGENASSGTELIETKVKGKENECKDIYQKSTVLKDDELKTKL
As to the kind of experiment: cell-based.

Series [3] concerns the target T3, OATP2B1. The following applies: A431-OATP2B1 cells, pyranine uptake.
A further series addresses ABCC1/MRP1 (Homo sapiens, UniProt P33527). Briefly: in vitro.

The term IC50 denotes the concentration needed to halve the response being measured. For orientation: EC50 means the concentration that produces a half-maximal response. Lower therefore signals higher potency in that assay.

T1 sequence (P08183 whole entry): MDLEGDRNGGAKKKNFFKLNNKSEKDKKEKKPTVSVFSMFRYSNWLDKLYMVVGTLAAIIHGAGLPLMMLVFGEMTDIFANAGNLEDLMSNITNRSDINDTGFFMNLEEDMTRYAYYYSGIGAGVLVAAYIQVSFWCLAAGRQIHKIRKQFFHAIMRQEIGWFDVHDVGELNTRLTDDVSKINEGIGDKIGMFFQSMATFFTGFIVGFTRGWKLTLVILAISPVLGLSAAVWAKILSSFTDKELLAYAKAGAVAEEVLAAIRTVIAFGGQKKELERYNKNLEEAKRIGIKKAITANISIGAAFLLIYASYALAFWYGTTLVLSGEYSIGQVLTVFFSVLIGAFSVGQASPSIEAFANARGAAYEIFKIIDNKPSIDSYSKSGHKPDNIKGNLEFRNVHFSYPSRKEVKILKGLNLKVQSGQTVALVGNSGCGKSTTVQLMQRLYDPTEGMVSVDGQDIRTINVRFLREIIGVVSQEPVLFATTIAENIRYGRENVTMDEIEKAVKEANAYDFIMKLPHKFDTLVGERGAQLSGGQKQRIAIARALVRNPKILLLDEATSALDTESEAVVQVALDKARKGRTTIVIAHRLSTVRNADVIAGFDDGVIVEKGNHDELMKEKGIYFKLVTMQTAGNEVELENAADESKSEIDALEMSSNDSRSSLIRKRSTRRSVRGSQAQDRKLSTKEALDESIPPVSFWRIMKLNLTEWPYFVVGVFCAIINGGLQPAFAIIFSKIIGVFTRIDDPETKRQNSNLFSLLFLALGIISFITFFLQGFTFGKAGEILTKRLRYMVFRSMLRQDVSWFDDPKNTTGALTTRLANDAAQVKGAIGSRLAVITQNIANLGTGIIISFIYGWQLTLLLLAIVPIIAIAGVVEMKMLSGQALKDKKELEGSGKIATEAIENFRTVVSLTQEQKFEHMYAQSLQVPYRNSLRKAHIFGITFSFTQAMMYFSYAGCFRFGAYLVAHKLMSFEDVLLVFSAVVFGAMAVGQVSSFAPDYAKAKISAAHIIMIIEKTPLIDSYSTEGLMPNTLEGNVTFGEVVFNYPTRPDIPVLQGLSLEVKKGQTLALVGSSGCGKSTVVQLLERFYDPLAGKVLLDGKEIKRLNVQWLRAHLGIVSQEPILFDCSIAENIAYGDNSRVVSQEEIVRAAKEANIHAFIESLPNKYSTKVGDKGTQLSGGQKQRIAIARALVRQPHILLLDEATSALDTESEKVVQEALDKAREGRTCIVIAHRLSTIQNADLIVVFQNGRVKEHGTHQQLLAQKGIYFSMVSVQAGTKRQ
Sequence of ABCC1/MRP1 (P33527 whole entry): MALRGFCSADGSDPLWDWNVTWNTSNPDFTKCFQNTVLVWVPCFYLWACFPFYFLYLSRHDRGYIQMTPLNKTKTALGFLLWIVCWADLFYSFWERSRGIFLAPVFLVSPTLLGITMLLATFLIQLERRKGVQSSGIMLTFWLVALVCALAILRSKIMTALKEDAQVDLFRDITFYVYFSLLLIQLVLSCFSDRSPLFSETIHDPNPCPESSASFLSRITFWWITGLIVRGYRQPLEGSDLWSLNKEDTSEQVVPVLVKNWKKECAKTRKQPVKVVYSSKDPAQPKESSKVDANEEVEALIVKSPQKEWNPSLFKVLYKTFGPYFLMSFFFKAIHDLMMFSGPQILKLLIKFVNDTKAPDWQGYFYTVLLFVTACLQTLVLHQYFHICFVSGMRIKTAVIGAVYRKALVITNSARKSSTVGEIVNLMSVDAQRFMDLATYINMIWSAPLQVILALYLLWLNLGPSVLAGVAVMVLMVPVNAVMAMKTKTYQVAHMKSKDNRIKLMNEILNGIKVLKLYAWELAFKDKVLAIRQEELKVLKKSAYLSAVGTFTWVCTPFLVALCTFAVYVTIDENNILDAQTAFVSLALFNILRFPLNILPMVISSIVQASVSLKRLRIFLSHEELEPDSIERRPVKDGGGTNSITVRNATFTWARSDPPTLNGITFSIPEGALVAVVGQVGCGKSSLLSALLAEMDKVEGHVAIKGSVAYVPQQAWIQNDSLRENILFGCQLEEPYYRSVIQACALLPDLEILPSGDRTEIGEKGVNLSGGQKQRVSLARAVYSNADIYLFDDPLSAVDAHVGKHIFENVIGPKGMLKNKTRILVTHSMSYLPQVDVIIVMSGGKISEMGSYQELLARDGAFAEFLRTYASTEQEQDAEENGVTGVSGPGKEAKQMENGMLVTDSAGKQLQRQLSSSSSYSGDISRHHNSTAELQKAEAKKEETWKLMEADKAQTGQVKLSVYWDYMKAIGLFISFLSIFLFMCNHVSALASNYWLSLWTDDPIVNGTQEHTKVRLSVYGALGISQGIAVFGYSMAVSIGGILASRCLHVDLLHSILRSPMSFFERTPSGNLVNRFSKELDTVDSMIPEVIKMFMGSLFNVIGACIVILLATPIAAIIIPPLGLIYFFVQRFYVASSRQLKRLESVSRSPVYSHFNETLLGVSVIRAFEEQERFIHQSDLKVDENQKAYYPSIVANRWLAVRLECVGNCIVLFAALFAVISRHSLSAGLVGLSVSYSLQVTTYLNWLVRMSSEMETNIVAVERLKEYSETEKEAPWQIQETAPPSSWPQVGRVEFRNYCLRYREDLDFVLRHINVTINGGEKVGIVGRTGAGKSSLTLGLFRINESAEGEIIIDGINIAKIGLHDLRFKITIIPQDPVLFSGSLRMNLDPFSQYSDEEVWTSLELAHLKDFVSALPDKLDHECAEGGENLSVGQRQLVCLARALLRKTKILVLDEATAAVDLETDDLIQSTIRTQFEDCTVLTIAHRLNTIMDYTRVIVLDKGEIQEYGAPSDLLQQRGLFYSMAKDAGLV
Sequence of ABCB1/MDR1/Pgp (P08183 whole entry): as the sequence (P08183 whole entry) above

Consider `CCC(CC)COC(=O)[C@H](C)N[P@](=O)(OC[C@H]1O[C@@](C#N)(c2ccc3c(N)ncnn23)[C@H](O)[C@@H]1O)Oc1ccccc1` [remdesivir], for which the IC50 at ABCB1/MDR1/Pgp was > 20 µM; against OATP2B1 [1] it was 3.8 µM; against OATP1A2, 3.8 µM. Further, the EC50 at ABCB1/Pgp was ~10 µM. The “Concentration at which ABCB1-ATPase activity was increased” value on ABCB1/Pgp (Sf9/ABCB1 membranes) was 10 to 50 µM. On ABCB1/Pgp (Sf9/ABCB1 membranes, 50 µM verapamil as reference activator), the “Effect on ABCB1-ATPase activity (in words)” value is on record as “significant ABCB1-ATPase stimulation”. Besides, the “Effect on Hst dye extrusion by ABCG2 in HeLa cells (in words)” value at wild-type ABCG2 was “slight effect at relatively high concentrations”. The “Plasma concentration, peak values” in series [2] is 3 to 5 µM. In series [2] (reported, reference not given), the “Reported peak plasma concentration” value is on record as “about 5 μM”.
Consider `NC(=O)c1nc(F)c[nH]c1=O` [favipiravir], for which the “Effect on OATP2B1 activity (in words)” value at OATP2B1 [3] is “no interaction”. At ABCC1/MRP1 (inverted membrane vesicles from Sf9 cells expressing ABCC1, probe 3H-estradiol-17b-glucuronide (ETGB), 0.2 µM), the IC50 at 3 min was > 50 µM.
On to `CCN(CCO)CCCC(C)Nc1ccnc2cc(Cl)ccc12` (stereo not drawn) [hydroxychloroquine], for which the “Effect on OATP2B1 activity (in words)” value on OATP2B1 [3] is given as “only modest inhibition”. Besides, the IC50 stood at 84 µM at OATP2B1 [1] and 18.9 µM at OATP1A2. For the same compound, the IC50 at 3 min against ABCC1/MRP1 is > 50 µM.
